How the values were obtained:
[1] = system: Bax; assay: Bax translocation from cytosol to mitochondria in rat hepatocytes; format: cell-based; conditions: preincubation with UDCA
Description: Isolation of cytosol and mitochondrial fractions and determination of cytochrome c and Bax content. Freshly isolated rat hepatocytes were cultured for 3 hours as described above and then incubated with William's medium supplemented with either 50 μM of DCA for 4 h, 1 nM TGF-β1 for 24 h and […] okadaic acid for 16 h, in the presence or absence of 100 μM UDCA, or no addition (control). Time-course experiments were also performed. Cells (1.0×10^7/ml) were harvested by centrifugation at 600×g for 5 min at 4° C. The cell pellets were washed once in ice-cold PBS and resuspended with 3 volumes of isolation buffer containing 20 mM Hepes-KOH, pH 7.5, 10 mM KCl, 1.5 mM MgCl2, 1 mM sodium EDTA, 1 mM sodium EGTA, 1 mM dithiothreitol (DTT), suplemmented with the COMPLETE protease inhibitor cocktail (Boehringer Mannheim Biochemicals, Inc., Indianapolis, Ind.) in 250 mM sucrose. After chiling on ice for 15 min, the cells were disrupted by 40 stokes of a glass homogeneizer and the homogenates were centrifuged twice at 2,500×g for 10 min at 4° C. to remove unbroken cells and nuclei. The mitochondria were pelleted by centrifugation at 12,000×g for 30 min at 4° C., resuspended in isolation buffer containing 250 mM sucrose and frozen at −80° C. […]

[2] = system: hepatocytes, HuH-7, Hep G2 and Saos-2 cells; assay: FACS analysis of ΔΨm and ROS, summary over all cell types; format: cell-based; conditions: coadministration of UDCA with the inducers, range over cell types
Description: A ΔΨm and ROS measurement. ΔΨm and ROS production were measured by FACScan (Becton Dickinson) analysis. Freshly isolated rat hepatocytes were cultured for 3 h as described above and then incubated with William's E medium supplemented with either 100 μM DCA, 100 μM UDCA, equal molar amounts of both, or no bile acid (control), for 6 h. Rat hepatocytes were also cultured with either 1% ethanol, 100 μM UDCA, ethanol+UDCA, or no addition (control) for 4 h. HuH-7 cells, Hep G2 cells, and human osteogenic sarcoma Saos-2 cells were incubated with TGF-β1, anti-Fas antibody or okadaic acid, respectively, for 48 h under the same conditions as outlined above. For combination studies, cells were pretreated with UDCA or hyodeoxycholic acid for 60 min prior to addition of DCA, ethanol, TGF-β1, anti-Fas antibody or okadaic acid. Aliquots of 1.0×10^6 cells were incubated for 15 min at 37° C. with 50 nM 3,3′-dihexyloxacarbocyanine iodide [DiOC6(3)], 2 μM dihydroethidium (HE), or 5 μM 2′,7′-dichlorofluorescin diacetate (H2DCFDA; Molecular Probes, Inc. Eugene, Oreg.) and analyzed by cytofluorometry (Cathcart et al., Anal. Biochem., 134, 111-116 (1983); Zamzami et al., J. Exp. Med., 181, 1661-1672 (1 995); Carter et al., J. Leukocyte Biol., 55, 253-258 (1994)).

[3] = system: primary rat hepatocytes; assay: Ethanol-induced apoptosis, Hoechst staining, primary rat hepatocytes; format: cell-based
Description: Incubation of cells with ethanol, TGF-β1, anti-Fas antibody or okadaic acid. Freshly isolated rat hepatocytes were cultured for 3 h as described above and then incubated with William's E medium supplemented with either 0.5% ethanol, 50 μM UDCA, ethanol plus UDCA, or no addition (control) for 2 h and 4 h. HuH-7 cells were incubated with Dulbecco's medium supplemented with either 1 nM TGF-β1 (R & D Systems, Minneapolis, Minn.), 100 μM UDCA, TGF-β1+UDCA, or no addition (control) for 24 h, 48 h, and 72 h. Hep G2 cells were incubated with Dulbecco's medium supplemented with either 0.5 μg/ml of anti-Fas antibody CH-11 (Upstate Biotechnology, Inc., Lake Placid, N.Y.), 100 μM UDCA, CH-11+UDCA, or no addition for 48 h. Both HuH-7 cells and human osteogenic sarcoma Saos-2 cells were cultured in Dulbecco's medium supplemented with either 50 nM okadaic acid (Boehringer Mannheim Biochemicals, Inc, Indianapolis, Ind.), 100 μM UDCA, okadaic acid+UDCA, or no addition for 48 h. In all the combination groups, cells were pretreated with UDCA alone for 60 min prior to addition of ethanol, TGF-β1, anti-Fas antibody or okadaic acid.
Morphological evaluation of apoptosis. Morphology was performed as described previously (Oberhammer et al., Proc. Natl. Acad. Sci. USA 89, 5408-5412 (1992)). Briefly, after fixation (with 4% formaldehyde in PBS, pH 7.4, for 10 min at room temperature), the cells were incubated with Hoechst dye 33258 (Sigma Chemical Co.) at 5 μg/ml in PBS for 5 min, washed with PBS and mounted with PBS:glycerol (3:1, v/v). Fluorescence was visualized with a Zeiss standard fluorescence microscope (Carl Zeiss, Inc., Thornwood, N.Y.). Photographs were taken with Kodak Ektar-1000 film (Eastman Kodak Co.). Stained nuclei were scored by blind analysis and categorized according to the condensation and staining characteristics of chromatin. Normal nuclei were identified as noncondensed chromatin dispersed over the entire nucleus. Apoptotic nuclei were identified by condensed chromatin, contiguous to the nuclear membrane, as well as nuclear fragmentation of condensed chromatin. Three fields per dish of approximately 500 nuclei were counted; mean values are expressed as the percent of apoptotic nuclei.

[4] = system: astrocytes; assay: Unconjugated bilirubin-induced apoptosis in astrocytes; format: cell-based, rat; conditions: coincubation of UCB with UDCA

C[C@H](CCC(=O)O)[C@H]1CC[C@H]2[C@@H]3[C@@H](O)C[C@@H]4C[C@H](O)CC[C@]4(C)[C@H]3CC[C@]12C [UDCA, ursodeoxycholic acid]
prevention of Bax translocation [1]: 45% | decrease in superoxide anion production [2]: 55-93% | inhibition of increase in other ROS [2]: 39-65% | inhibition of ΔΨm disruption [2]: 21-63% | cell viability ([3]; 0.5% ethanol + 50 μM UDCA): 79.5±7.9% | Inhibition % Apoptosis ([3]; inducer ETOH, hepatocytes, inhibition by UDCA): 75.9 ± 13.8% | inhibition of apoptosis [4]: over 50%
